Test results: US20110190280A1, “Thiazole And Oxazole Kinase Inhibitors” (priority 2007, published 2011)
pIC50: −log10 of the molar value. Where a name gives a salt, the structure may show the parent alone.

Assays:
SK-MEL-3 tumor cells = assay: Cell growth inhibition assay (CellTiter-Glo), SK-MEL-3; details: Homo sapiens, SK-MEL3, 72 h, read-out: Activity in SK-MEL-3 Tumor Cells;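 note: human melanoma cells grown with compound for 3 days in 0.2% DMSO, total ATP read by luminescence as proxy for cell number, growth inhibition versus DMSO-treated wells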
B-Raf = B-Raf (Homo sapiens, UniProt P15056); assay: B-Raf Accelerated MEK ATPase assay (BRAMA); assay type: biochemical; details: BRAMA enzyme assay; class by pIC50; read-out: B-Raf Activity
Summary of the method: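 B-Raf activity read as intrinsic MEK ATPase: catalytic activated RAF with non-phosphorylated MEK drives ADP formation, coupled through pyruvate kinase and lactate dehydrogenase to NADH oxidation, independent of ERK phosphorylation.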

ErbB2 = ErbB2 (Homo sapiens, UniProt P04626); assay: ErbB2 kinase autophosphorylation assay (peptide phosphorylation, HTRF); assay type: biochemical; details: 10 nM ErbB2, HTRF; class by pIC50
Experimental: (§1) A selection of compounds of the present invention were tested for inhibitory activity against EGFR and ErbB2 kinases in autophosphorylation assays.
(§2) The method measures the ability of the isolated enzyme to catalyse the transfer of the gamma-phosphate from ATP onto the tyrosine residue of a biotinylated synthetic peptide referenced “Peptide C” in Brignola, P. S., et al, (2002) J. Biol. Chem. 277(2):1576-1585. The extent of tyrosine phosphorylation was measured using an anti-phosphotyrosine antibody, and quantified by homogenous time-resolved fluorescence (HTRF).
(§3) Reactions were performed in black 384-well polystyrene flat-bottom plates in a final volume of 20 ul. Assays were performed by adding 10 μl of each of the following solutions, substrate Mix and enzyme mix: The Substrate mix contained 100 mM 3-[N-morpholino]propanesulfonic acid (MOPS) (pH 7.5), 2 mM MnCl2, 20 μM ATP, 0.01% Tween-20, 0.1 mg/mL (BSA), 0.8 uM peptide substrate, and 1 mM dithiothreitol. The enzyme mix contained 100 mM MOPS (pH7.5); 0.01% Tween-20; 0.1 mg/mL BSA, and either 0.8 nM EGFR, 10 nM ErbB2, or 1 nM ErbB4
(§4) The enzyme mix was added to the compound plates and the plates were incubated at 20° C. for 1 hour. The reactions were allowed to proceed for 90 minutes at 20° C. The reactions were then terminated by the addition of 20 μl 100 mM EDTA to each well. 40 μl/well of HTRF detection mix were added to the assay plates. The final concentrations of the detection reagents were: 100 mM HEPES (pH7.5), 0.1 mg/mL BSA, 15 nM streptavidin-labeled allophycocyanin (PerkinElmer), and 1 nM europium-labeled anti-phosphotyrosine antibody (PerkinElmer). Assay plates were left unsealed and were counted in a Wallac Multilabel Counter 1420 (PerkinElmer).
(§5) Compounds under analysis were dissolved in Me2SO to 1.0 mM and serially diluted 1 to 3 with Me2SO through twelve dilutions. 1 μl of each concentration was transferred to the corresponding well of an assay plate. This creates a final compound concentration range from 0.00027 to 47.6 μM.
(§6) The data for dose responses were plotted as % Inhibition calculated with the data reduction formula 100*(1−(U1−C2)/(C1−C2)) versus concentration of compound where U is the unknown value, C1 is the average control value obtained for 4.76% DMSO, and C2 is the average control value obtained for 0.035 M EDTA. Data were fitted with a curve described by:
(§7) where Vmax is the upper asymptote, Y2 is the Y intercept, and K is the IC50. The results for each compound were recorded as pIC50s, calculated as follows: […]
(§8) In the following table: • “+” indicates no pIC50 measurement greater than 6 against EGFR or ErbB2, • “++” indicates at least one pIC50 measurement greater than 6 against EGFR or ErbB2 but no measurement greater than pIC50 of 7; and • “+++” indicates at least one pIC50 measurement of greater than 7 against EGFR or ErbB2.

Colo205 tumor cells = assay: Cell growth inhibition assay (CellTiter-Glo), Colo205; details: Homo sapiens, COLO 205, 72 h, read-out: Activity in Colo205 Tumor Cells;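 note: growth measured via total ATP luminescence (CellTiter-Glo) as a proxy for cell number, inhibition expressed against DMSO-treated control wells, 3-day exposure at 0.2% final DMSO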
SK-MEL-28 tumor cells = assay: Cell growth inhibition assay (CellTiter-Glo), SK-MEL-28; details: Homo sapiens, SK-MEL-28, 72 h, read-out: Activity in SK-MEL-28 Tumor Cells;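 note: luminescent total ATP as a proxy for cell number, threefold serial dilutions at 0.2% DMSO, percent growth inhibition versus DMSO vehicle control wells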
EGFR = EGFR (Homo sapiens, UniProt P00533); assay: EGFR kinase autophosphorylation assay (peptide phosphorylation, HTRF); assay type: biochemical; details: 0.8 nM EGFR, class by pIC50
Experimental: as §1, §2, §3, §4, §5, §6, §7, §8

A375P tumor cells = assay: Cell growth inhibition assay (CellTiter-Glo), A375P; details: Homo sapiens, 72 h, read-out: Activity in A375P Tumor Cells;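 note: total ATP luminescence used as proxy for cell number, serial threefold compound dilutions at 0.2% DMSO, growth inhibition expressed versus DMSO vehicle-treated wells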
HT-29 tumor cells = assay: Cell growth inhibition assay (CellTiter-Glo), HT-29; details: Homo sapiens, HT-29, 72 h, read-out: Activity in HT-29 Tumor Cells;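 note: ATP content read by luminescence as proxy for cell number, growth inhibition versus DMSO vehicle wells, 0.2% DMSO final, nine serial threefold compound dilutions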

EGFR, sequence (P00533 25-1210): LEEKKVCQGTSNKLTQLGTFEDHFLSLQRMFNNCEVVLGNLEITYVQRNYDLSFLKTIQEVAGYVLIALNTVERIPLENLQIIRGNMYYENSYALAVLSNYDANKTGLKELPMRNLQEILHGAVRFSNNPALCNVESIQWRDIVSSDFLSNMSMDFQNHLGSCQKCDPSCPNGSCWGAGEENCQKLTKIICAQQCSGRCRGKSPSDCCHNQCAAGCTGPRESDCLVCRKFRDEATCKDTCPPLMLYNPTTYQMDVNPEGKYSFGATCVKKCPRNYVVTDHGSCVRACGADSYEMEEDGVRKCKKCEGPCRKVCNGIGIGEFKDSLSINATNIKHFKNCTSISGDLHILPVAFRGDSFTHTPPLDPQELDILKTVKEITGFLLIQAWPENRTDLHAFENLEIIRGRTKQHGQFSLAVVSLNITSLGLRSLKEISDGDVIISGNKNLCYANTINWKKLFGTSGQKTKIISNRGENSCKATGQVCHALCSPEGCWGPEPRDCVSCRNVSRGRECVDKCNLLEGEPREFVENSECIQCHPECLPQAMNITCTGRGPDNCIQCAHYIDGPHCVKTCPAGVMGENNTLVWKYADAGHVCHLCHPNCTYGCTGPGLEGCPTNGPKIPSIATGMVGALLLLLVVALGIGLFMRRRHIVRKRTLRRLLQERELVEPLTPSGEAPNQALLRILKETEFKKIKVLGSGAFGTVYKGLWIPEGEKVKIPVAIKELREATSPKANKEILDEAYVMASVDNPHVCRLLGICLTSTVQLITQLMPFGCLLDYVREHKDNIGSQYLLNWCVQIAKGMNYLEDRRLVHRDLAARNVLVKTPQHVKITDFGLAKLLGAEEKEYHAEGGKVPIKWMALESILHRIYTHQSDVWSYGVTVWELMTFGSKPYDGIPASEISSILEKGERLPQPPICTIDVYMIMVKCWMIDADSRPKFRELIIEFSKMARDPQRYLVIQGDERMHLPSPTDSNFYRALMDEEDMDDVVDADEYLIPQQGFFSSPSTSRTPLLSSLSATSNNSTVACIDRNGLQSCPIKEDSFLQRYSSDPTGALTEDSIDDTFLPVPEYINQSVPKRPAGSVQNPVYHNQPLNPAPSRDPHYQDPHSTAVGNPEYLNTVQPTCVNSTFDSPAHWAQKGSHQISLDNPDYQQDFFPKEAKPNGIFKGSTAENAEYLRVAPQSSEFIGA
ErbB2, sequence (P04626 23-1255): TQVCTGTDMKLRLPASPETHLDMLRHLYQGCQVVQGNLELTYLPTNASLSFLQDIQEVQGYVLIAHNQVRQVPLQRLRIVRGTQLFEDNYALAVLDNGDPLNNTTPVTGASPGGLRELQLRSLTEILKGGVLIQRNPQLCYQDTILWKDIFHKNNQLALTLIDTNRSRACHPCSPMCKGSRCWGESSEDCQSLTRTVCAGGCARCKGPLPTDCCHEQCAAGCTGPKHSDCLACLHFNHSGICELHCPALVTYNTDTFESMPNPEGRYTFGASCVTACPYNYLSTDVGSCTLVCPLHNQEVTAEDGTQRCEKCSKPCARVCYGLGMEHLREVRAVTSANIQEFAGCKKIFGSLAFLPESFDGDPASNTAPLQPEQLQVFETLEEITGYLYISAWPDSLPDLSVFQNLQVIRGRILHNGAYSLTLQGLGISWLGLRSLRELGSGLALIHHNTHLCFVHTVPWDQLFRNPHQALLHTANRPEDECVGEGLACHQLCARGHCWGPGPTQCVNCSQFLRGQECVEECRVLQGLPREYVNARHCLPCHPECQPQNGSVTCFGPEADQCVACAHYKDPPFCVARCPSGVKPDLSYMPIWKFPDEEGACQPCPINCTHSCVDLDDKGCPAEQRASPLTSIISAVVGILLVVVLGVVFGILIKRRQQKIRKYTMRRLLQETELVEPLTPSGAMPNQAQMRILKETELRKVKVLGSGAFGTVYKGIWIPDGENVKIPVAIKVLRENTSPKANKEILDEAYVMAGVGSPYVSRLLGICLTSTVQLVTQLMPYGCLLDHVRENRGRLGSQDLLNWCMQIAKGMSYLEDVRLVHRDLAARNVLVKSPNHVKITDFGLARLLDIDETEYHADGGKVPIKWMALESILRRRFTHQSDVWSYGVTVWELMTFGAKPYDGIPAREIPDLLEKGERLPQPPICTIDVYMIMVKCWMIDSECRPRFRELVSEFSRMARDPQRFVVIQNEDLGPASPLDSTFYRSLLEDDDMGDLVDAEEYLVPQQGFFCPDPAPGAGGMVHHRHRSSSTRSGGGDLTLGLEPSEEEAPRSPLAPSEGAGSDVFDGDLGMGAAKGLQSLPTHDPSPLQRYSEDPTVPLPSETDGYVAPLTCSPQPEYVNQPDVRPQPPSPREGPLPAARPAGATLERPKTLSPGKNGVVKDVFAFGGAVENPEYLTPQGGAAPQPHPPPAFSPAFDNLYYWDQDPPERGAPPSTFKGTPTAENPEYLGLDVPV
B-Raf, sequence (P15056 whole entry): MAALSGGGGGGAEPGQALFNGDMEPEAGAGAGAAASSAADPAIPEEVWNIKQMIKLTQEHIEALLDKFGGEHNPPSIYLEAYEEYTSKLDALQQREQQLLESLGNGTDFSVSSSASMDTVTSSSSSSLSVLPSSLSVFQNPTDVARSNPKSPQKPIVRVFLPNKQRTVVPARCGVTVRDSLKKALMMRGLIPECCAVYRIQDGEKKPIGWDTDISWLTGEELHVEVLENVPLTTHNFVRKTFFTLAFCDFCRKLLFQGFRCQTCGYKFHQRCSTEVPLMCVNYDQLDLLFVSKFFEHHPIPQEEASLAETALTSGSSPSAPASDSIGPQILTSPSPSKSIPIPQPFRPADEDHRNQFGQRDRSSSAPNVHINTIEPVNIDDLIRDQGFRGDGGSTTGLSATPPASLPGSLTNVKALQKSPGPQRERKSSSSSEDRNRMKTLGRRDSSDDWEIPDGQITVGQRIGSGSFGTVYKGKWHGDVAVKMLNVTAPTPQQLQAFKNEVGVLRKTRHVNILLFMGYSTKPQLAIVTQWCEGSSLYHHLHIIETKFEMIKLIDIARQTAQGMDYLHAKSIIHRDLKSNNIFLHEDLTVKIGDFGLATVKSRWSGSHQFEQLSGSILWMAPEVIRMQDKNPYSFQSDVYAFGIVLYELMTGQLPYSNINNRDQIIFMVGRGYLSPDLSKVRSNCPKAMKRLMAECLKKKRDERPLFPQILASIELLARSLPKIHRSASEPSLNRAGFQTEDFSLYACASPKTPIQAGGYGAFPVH

## CCNc1nc(-c2cc(C)cc(OC)c2)c(-c2ccnc(Nc3ccc(N4CCN(CCF)CC4)c(F)c3)n2)s1 [Example 29, 4-{2-(Ethylamino)-4-[3-methyl-5-(methyloxy)phenyl]-1,3-thiazol-5-yl}-N-{3-fluoro-4-[4-(2-fluoroethyl)-1-piperazinyl]phenyl}-2-pyrimidinamine]
SK-MEL-3 tumor cells
  pIC50: > 6.30
B-Raf
  pIC50: > 7.00
ErbB2
  pIC50: < 6.00
Colo205 tumor cells
  pIC50: > 6.30
SK-MEL-28 tumor cells
  pIC50: > 6.30
EGFR
  pIC50: < 6.00
A375P tumor cells
  pIC50: > 6.30
HT-29 tumor cells
  pIC50: > 6.30

## CCNc1nc(-c2cc(C)cc(OC)c2)c(-c2ccnc(Nc3ccc4c(c3)CCN4C(C)=O)n2)s1 [Example 30, 1-Acetyl-N-(4-{2-(ethylamino)-4-[3-methyl-5-(methyloxy)phenyl]-1,3-thiazol-5-yl}-2-pyrimidinyl)-2,3-dihydro-1H-indol-5-amine]
SK-MEL-3 tumor cells
  pIC50: > 6.30
B-Raf
  pIC50: > 7.00
ErbB2
  pIC50: < 6.00
Colo205 tumor cells
  pIC50: > 6.30
SK-MEL-28 tumor cells
  pIC50: > 6.30
EGFR
  pIC50: < 6.00
A375P tumor cells
  pIC50: > 6.30
HT-29 tumor cells
  pIC50: > 6.30

## CCNc1nc(-c2cc(C)cc(OC)c2)c(-c2ccnc(Nc3ccc(N4CCS(=O)(=O)CC4)nc3)n2)s1 [Example 34, N-[6-(1,1-Dioxido-4-thiomorpholinyl)-3-pyridinyl]-4-{2-(ethylamino)-4-[3-methyl-5-(methyloxy)phenyl]-1,3-thiazol-5-yl}-2-pyrimidinamine]
SK-MEL-3 tumor cells
  pIC50: > 6.30
B-Raf
  pIC50: > 7.00
ErbB2
  pIC50: < 6.00
Colo205 tumor cells
  pIC50: > 6.30
SK-MEL-28 tumor cells
  pIC50: > 6.30
EGFR
  pIC50: < 6.00
A375P tumor cells
  pIC50: > 6.30
HT-29 tumor cells
  pIC50: > 6.30

## CCNc1nc(-c2cc(C)cc(OC)c2)c(-c2ccnc(Nc3ccc(N4CCOCC4)nc3)n2)s1 [Example 35, 4-{2-(Ethylamino)-4-[3-methyl-5-(methyloxy)phenyl]-1,3-thiazol-5-yl}-N-[6-(4-morpholinyl)-3-pyridinyl]-2-pyrimidinamine]
SK-MEL-3 tumor cells
  pIC50: > 6.30
B-Raf
  pIC50: > 7.00
ErbB2
  pIC50: < 6.00
Colo205 tumor cells
  pIC50: > 6.30
SK-MEL-28 tumor cells
  pIC50: > 6.30
EGFR
  pIC50: < 6.00
A375P tumor cells
  pIC50: > 6.30
HT-29 tumor cells
  pIC50: > 6.30

## CCNc1nc(-c2cc(C)cc(OC)c2)c(-c2ccnc(Nc3ccc(N4CCN(C(C)=O)CC4)nc3)n2)s1 [Example 36, N-[6-(4-Acetyl-1-piperazinyl)-3-pyridinyl]-4-{2-(ethylamino)-4-[3-methyl-5-(methyloxy)phenyl]-1,3-thiazol-5-yl}-2-pyrimidinamine]
SK-MEL-3 tumor cells
  pIC50: > 6.30
B-Raf
  pIC50: > 7.00
ErbB2
  pIC50: < 6.00
Colo205 tumor cells
  pIC50: > 6.30
SK-MEL-28 tumor cells
  pIC50: > 6.30
EGFR
  pIC50: < 6.00
A375P tumor cells
  pIC50: > 6.30
HT-29 tumor cells
  pIC50: > 6.30

## CCNc1nc(-c2cc(C)cc(OC)c2)c(-c2ccnc(Nc3ccc(N4CCN(C(=O)COC)CC4)nc3)n2)s1 [Example 37, 4-{2-(Ethylamino)-4-[3-methyl-5-(methyloxy)phenyl]-1,3-thiazol-5-yl}-N-(6-{4-[(methyloxy)acetyl]-1-piperazinyl}-3-pyridinyl)-2-pyrimidinamine]
SK-MEL-3 tumor cells
  pIC50: > 6.30
B-Raf
  pIC50: > 7.00
ErbB2
  pIC50: < 6.00
Colo205 tumor cells
  pIC50: > 6.30
SK-MEL-28 tumor cells
  pIC50: > 6.30
EGFR
  pIC50: < 6.00
A375P tumor cells
  pIC50: > 6.30
HT-29 tumor cells
  pIC50: > 6.30

## CCNc1nc(-c2cccc(OC)c2)c(-c2ccnc(Nc3ccc(OC4CCN(CCS(C)(=O)=O)CC4)c(F)c3)n2)s1 [Example 41, 4-{2-(Ethylamino)-4-[3-(methyloxy)phenyl]-1,3-thiazol-5-yl}-N-[3-fluoro-4-({1-[2-(methylsulfonyl)ethyl]-4-piperidinyl}oxy)phenyl]-2-pyrimidinamine]
SK-MEL-3 tumor cells
  pIC50: > 6.30
B-Raf
  pIC50: > 7.00
ErbB2
  pIC50: < 6.00
Colo205 tumor cells
  pIC50: > 6.30
SK-MEL-28 tumor cells
  pIC50: > 6.30
EGFR
  pIC50: 6.00 to 7.00
A375P tumor cells
  pIC50: > 6.30
HT-29 tumor cells
  pIC50: > 6.30

## COCCNc1nc(-c2cccc(OC)c2)c(-c2ccnc(Nc3ccc(N4CCOCC4)c(Cl)c3)n2)s1 [Example 43, N-[3-Chloro-4-(4-morpholinyl)phenyl]-4-{2-{[2-(methyloxy)ethyl]amino}-4-[3-(methyloxy)phenyl]-1,3-thiazol-5-yl}-2-pyrimidinamine hydrochloride]
SK-MEL-3 tumor cells
  pIC50: > 6.30
B-Raf
  pIC50: > 7.00
ErbB2
  pIC50: > 7.00
Colo205 tumor cells
  pIC50: 5.30 to 6.30
SK-MEL-28 tumor cells
  pIC50: < 5.30
EGFR
  pIC50: > 7.00
A375P tumor cells
  pIC50: > 6.30
HT-29 tumor cells
  pIC50: > 6.30

## CCNc1nc(-c2cccc(O)c2)c(-c2ccnc(Nc3ccc(OCCN4CCCC4)c(Cl)c3)n2)s1 [Example 44]
SK-MEL-3 tumor cells
  pIC50: > 6.30
B-Raf
  pIC50: > 7.00
ErbB2
  pIC50: > 7.00
Colo205 tumor cells
  pIC50: > 6.30
SK-MEL-28 tumor cells
  pIC50: > 6.30
EGFR
  pIC50: > 7.00
A375P tumor cells
  pIC50: > 6.30
HT-29 tumor cells
  pIC50: > 6.30

## CCNc1nc(-c2cccc(Cl)c2)c(-c2ccnc(Nc3ccc(OCCN(C)C)c(Cl)c3)n2)s1 [Example 46, N-(3-Chloro-4-{[2-(dimethylamino)ethyl]oxy}phenyl)-4-[4-(3-chlorophenyl)-2-(ethylamino)-1,3-thiazol-5-yl]-2-pyrimidinamine]
SK-MEL-3 tumor cells
  pIC50: > 6.30
B-Raf
  pIC50: > 7.00
ErbB2
  pIC50: > 7.00
Colo205 tumor cells
  pIC50: > 6.30
SK-MEL-28 tumor cells
  pIC50: > 6.30
EGFR
  pIC50: > 7.00
A375P tumor cells
  pIC50: > 6.30
HT-29 tumor cells
  pIC50: > 6.30

## CCc1nc(-c2ccc(CO)c(OC)c2)c(-c2ccnc(Nc3ccc(N4CCN(C(C)=O)CC4)nc3)n2)s1 [Example 55]
SK-MEL-3 tumor cells
  pIC50: > 6.30
B-Raf
  pIC50: > 7.00
ErbB2
  pIC50: < 6.00
Colo205 tumor cells
  pIC50: > 6.30
SK-MEL-28 tumor cells
  pIC50: > 6.30
EGFR
  pIC50: < 6.00
A375P tumor cells
  pIC50: > 6.30
HT-29 tumor cells
  pIC50: > 6.30

## COc1cc(C)cc(-c2nc(C(C)C)sc2-c2ccnc(Nc3ccc(N4CCOCC4)nc3)n2)c1 [Example 61, 4-{2-(1-Methylethyl)-4-[3-methyl-5-(methyloxy)phenyl]-1,3-thiazol-5-yl}-N-[6-(4-morpholinyl)-3-pyridinyl]-2-pyrimidinamine]
SK-MEL-3 tumor cells
  pIC50: > 6.30
B-Raf
  pIC50: > 7.00
ErbB2
  pIC50: < 6.00
Colo205 tumor cells
  pIC50: > 6.30
SK-MEL-28 tumor cells
  pIC50: 5.30 to 6.30
EGFR
  pIC50: < 6.00
A375P tumor cells
  pIC50: > 6.30
HT-29 tumor cells
  pIC50: > 6.30

## COc1cc(C)cc(-c2nc(C(C)C)sc2-c2ccnc(Nc3ccc(N4CCN(C(C)=O)CC4)nc3)n2)c1 [Example 63, N-[6-(4-Acetyl-1-piperazinyl)-3-pyridinyl]-4-{2-(1-methylethyl)-4-[3-methyl-5-(methyloxy)phenyl]-1,3-thiazol-5-yl}-2-pyrimidinamine]
SK-MEL-3 tumor cells
  pIC50: > 6.30
B-Raf
  pIC50: > 7.00
ErbB2
  pIC50: < 6.00
Colo205 tumor cells
  pIC50: > 6.30
SK-MEL-28 tumor cells
  pIC50: > 6.30
EGFR
  pIC50: < 6.00
A375P tumor cells
  pIC50: > 6.30
HT-29 tumor cells
  pIC50: > 6.30

## COc1cc(C)cc(-c2nc(CNS(C)(=O)=O)sc2-c2ccnc(Nc3ccc(N4CCN(C(C)=O)CC4)nc3)n2)c1 [Example 64, N-({5-(2-{[6-(4-Acetyl-1-piperazinyl)-3-pyridinyl]amino}-4-pyrimidinyl)-4-[3-methyl-5-(methyloxy)phenyl]-1,3-thiazol-2-yl}methyl)methanesulfonamide]
SK-MEL-3 tumor cells
  pIC50: > 6.30
B-Raf
  pIC50: > 7.00
ErbB2
  pIC50: < 6.00
Colo205 tumor cells
  pIC50: > 6.30
SK-MEL-28 tumor cells
  pIC50: > 6.30
EGFR
  pIC50: < 6.00
A375P tumor cells
  pIC50: > 6.30
HT-29 tumor cells
  pIC50: > 6.30
